The values that follow are results of earlier work, collected in patent US20250375404A1, “AN ORODISPERSIBLE PHARMACEUTICAL COMPOSITION OF BACLOFEN AND ITS PROCESS OF PREPARATION” (NOVUMGEN LIMITED, priority 2022, published 2025).

For the data set the following is noted: in vivo.

On to `NCC(CC(=O)O)c1ccc(Cl)cc1` (stereo not shown) [Baclofen], for which the “Absorption from the gastro-intestinal tract” value is “rapidly and completely absorbed”.
